ChEMBL document CHEMBL4665709, “Rational Avoidance of Protease Cleavage Sites and Symmetrical End-Tagging Significantly Enhances the Stability and Therapeutic Potential of Antimicrobial Peptides” (J Med Chem, 2020)
≈ marks a conversion by molar mass, not a printed value. Calls of active or inactive are those of the source. The calls are words filed in the database; no cut-off is given here. Where a SMILES comes first, the peptide text is derived from it.

Columns and labels:
[1] = Therapeutic index, ratio of MHC for human RBC to geometric mean of peptide MIC for Staphylococcus epidermidis ATCC 12228; assay type: toxicity; details: human red blood cells (RBC), read-out: TI
[2] = Therapeutic index, ratio of MHC for human RBC to geometric mean of peptide MIC for Salmonella typhimurium 14028; assay type: toxicity; details: human red blood cells (RBC), read-out: TI
[3] = Therapeutic index, ratio of MHC for human RBC to geometric mean of peptide MIC for Escherichia coli ATCC 25922; assay type: toxicity; details: human red blood cells (RBC), read-out: TI
Cell membrane [4] = experiment: Disruption of membrane integrity in Staphylococcus aureus ATCC 29213 assessed as induction of membrane rupture at 0.5 to 2 times after 1 hr by PI-staining based fluorescence microscopy; assay type: subcellular
[5] = system: Staphylococcus epidermidis; experiment: Antibacterial activity against Staphylococcus epidermidis ATCC 12228 after 18 to 24 hrs by CLSI-based broth microdilution method; assay type: functional; details: time hrs 18-24
Enterococcus faecalis = experiment: Antibacterial activity against Enterococcus faecalis ATCC 29212 after 18 to 24 hrs by CLSI-based broth microdilution method; assay type: functional; details: time hrs 18-24
Staphylococcus aureus [6] = experiment: Antibacterial activity against methicillin-resistant Staphylococcus aureus 43300 after 18 to 24 hrs by CLSI-based broth microdilution method; assay type: functional; details: time hrs 18-24
Escherichia coli [7] = experiment: Antibacterial activity against Escherichia coli ATCC 25922 after 18 to 24 hrs in presence of 150 mM Na+ by CLSI-based broth microdilution method; assay type: functional; details: time hrs 18-24
Erythrocyte = experiment: Hemolytic activity in human RBC assessed as hemolysis; assay type: ADME, cell-based
Escherichia coli [8] = experiment: Antibacterial activity against Escherichia coli ATCC 25922 after 18 to 24 hrs in presence of 4.5 mM K+ by CLSI-based broth microdilution method; assay type: functional; details: time hrs 18-24
Escherichia coli [9] = experiment: Antibacterial activity against Escherichia coli ATCC 25922 after 18 to 24 hrs in presence of 1 mM Mg2+ by CLSI-based broth microdilution method; assay type: functional; details: time hrs 18-24
Escherichia coli [10] = experiment: Antibacterial activity against Escherichia coli ATCC 25922 after 18 to 24 hrs in presence of 8 uM Zn2+ by CLSI-based broth microdilution method; assay type: functional; details: time hrs 18-24
Escherichia coli [11] = experiment: Antibacterial activity against Escherichia coli ATCC 25922 after 18 to 24 hrs in presence of 6 uM NH4+ by CLSI-based broth microdilution method; assay type: functional; details: time hrs 18-24
Escherichia coli [12] = experiment: Antibacterial activity against Escherichia coli ATCC 25922 after 18 to 24 hrs in presence of 50% human serum by CLSI-based broth microdilution method; assay type: functional; details: time hrs 18-24
Staphylococcus aureus [13] = experiment: Antibacterial activity against Staphylococcus aureus ATCC 29213 after 18 to 24 hrs in presence of 8 uM Zn2+ by CLSI-based broth microdilution method; assay type: functional; details: time hrs 18-24
Staphylococcus aureus [14] = experiment: Antibacterial activity against Staphylococcus aureus ATCC 29213 after 18 to 24 hrs in presence of 6 uM NH4+ by CLSI-based broth microdilution method; assay type: functional; details: time hrs 18-24
Staphylococcus aureus [15] = experiment: Antibacterial activity against Staphylococcus aureus ATCC 29213 after 18 to 24 hrs in presence of 100% human serum by CLSI-based broth microdilution method; assay type: functional; details: time hrs 18-24
[16] = Stability of compound at 100 degreeC after 30 to 90 mins; assay type: physicochemical; details: time 30-90 min
Escherichia coli [17] = experiment: Antibacterial activity against Escherichia coli ATCC 25922 measured after 18 to 24 hrs in presence of chymotrypsin by CLSI-based broth microdilution method; assay type: functional, organism-based; details: time hrs 18-24
Staphylococcus aureus [18] = experiment: Antibacterial activity against Staphylococcus aureus 29213 with 0.0625-2 mg/mL proteinase K for 1 hr followed by test compound addition measured after 4 to 8 hrs by CLSI-based broth microdilution method; assay type: functional, organism-based; details: time hrs 4-8
Escherichia coli [19] = experiment: Antibacterial activity against Escherichia coli 25922 measured over 40 passages; assay type: functional, organism-based; details: ATCC 25922
[20] = Toxicity in C57BL/6 mouse assessed as effect on creatinine level at 10 mg/kg, ip measured after 5 days; assay type: organism-based; details: in vivo, 120 h, time 5 day
Escherichia coli [21] = experiment: Antibacterial activity against Escherichia coli ATCC 25922 infected in C57BL/6 mouse assessed as reduction in bacterial load in kidney at 10 mg/kg, ip measured after 11 hrs (reference value: 7.59 log CFU/g); assay type: functional
Escherichia coli [22] = experiment: Antibacterial activity against Escherichia coli ATCC 25922 infected in C57BL/6 mouse reduction in inflammatory cell infiltration in liver at 10 mg/kg, ip measured after 11 hrs by hematoxylin and eosin staining based assay; assay type: functional, organism-based
Escherichia coli [23] = experiment: Antibacterial activity against Escherichia coli ATCC 25922 infected in C57BL/6 mouse assessed as reduction in bleeding in kidney at 10 mg/kg, ip measured after 11 hrs by hematoxylin and eosin staining based assay; assay type: functional, organism-based
RAW264.7 [24] = experiment: Antiinflammatory activity in mouse RAW264.7 cells assessed as inhibition of LPS-induced IL-6 production after 24 hrs by ELISA; assay type: functional, cell-based
RAW264.7 [25] = experiment: Antiinflammatory activity in mouse RAW264.7 cells assessed as inhibition of LPS-induced TNF-alpha production after 24 hrs by ELISA; assay type: functional, cell-based
[26] = Stability of compound assessed as pepsin (unknown origin)-mediated drug degradation after 8 hrs by RP-HPLC analysis; assay type: ADME; details: human
[27] = Stability of compound assessed as proteinase K (unknown origin)-mediated drug degradation after 8 hrs by RP-HPLC analysis; assay type: ADME; details: human
Trypsin = Trypsin (Homo sapiens, UniProt P07477+P07478+P35030); experiment: Stability of compound assessed as trypsin (unknown origin)-mediated drug degradation after 8 hrs by SDS-PAGE analysis; assay type: ADME, protein assay
[28] = Stability of compound assessed as chymotrypsin (unknown origin)-mediated drug degradation after 8 hrs by SDS-PAGE analysis; assay type: ADME; details: human
Staphylococcus aureus [29] = experiment: Displacement of BODIPY-TR-cadaverine from Staphylococcus aureus LTA after 4 hrs by fluorescence assay
Cell membrane [30] = experiment: Induction of membrane permeabilization in Escherichia coli ATCC 25922 after 1 hr by PI fluorescence staining-based confocal microscopy analysis
Cell membrane [31] = experiment: Disruption of membrane integrity in Escherichia coli ATCC 25922 assessed as induction of membrane rupture at 2 times MIC after 1 hr by PI-staining based flow cytometry analysis relative to control
Cell membrane [32] = experiment: Induction of morpholoical changes in membrane of Escherichia coli ATCC 25922 assessed as fragmentation in bacterial membrane at 1 times MIC after 1 hr by scanning electron microscopy; assay type: subcellular
Cell membrane [33] = experiment: Induction of morpholoical changes in membrane of Staphylococcus aureus ATCC 29213 assessed as fragmentation in bacterial membrane at 1 times MIC after 1 hr by scanning electron microscopy; assay type: subcellular
Cell membrane [34] = experiment: Induction of structural changes in membrane of Escherichia coli ATCC 25922 assessed as cytoplasmic membrane separation at 1 times MIC after 1 hr by transmission electron microscopy; assay type: subcellular
Cell membrane [35] = experiment: Induction of structural changes in membrane of Escherichia coli ATCC 25922 assessed as sparsity at 1 times MIC after 1 hr by transmission electron microscopy; assay type: subcellular
Cell membrane [36] = experiment: Induction of structural changes in membrane of Staphylococcus aureus ATCC 29213 assessed as cytoplasmic leakage at 1 times MIC after 1 hr by transmission electron microscopy
Cell membrane [37] = experiment: Induction of structural changes in membrane of Staphylococcus aureus ATCC 29213 assessed as sparsity at 1 times MIC after 1 hr by transmission electron microscopy; assay type: subcellular

Q: Which selectivity ratio [1] does the source give for CC[C@H](C)[C@H](N)C(=O)N[C@H](C(=O)N[C@H](C(=O)N[C@@H](CS)C(=O)N[C@@H](CCCNC(=N)N)C(=O)N[C@@H](CCCCN)C(=O)N1CCC[C@H]1C(=O)N[C@H](C(=O)N[C@H](C(=O)N[C@@H](CS)C(=O)N[C@@H](CCCNC(=N)N)C(=O)N[C@@H](CCCCN)C(=O)N1CCC[C@H]1C(=O)N[C@H](C(=O)N[C@H](C(=O)N[C@@H](CS)C(=O)N[C@@H](CCCNC(=N)N)C(=O)N[C@@H](CCCCN)C(=O)N1CCC[C@H]1C(=O)N[C@H](C(=O)N[C@H](C(=O)N[C@@H](CS)C(=O)N[C@@H](CCCNC(=N)N)C(=O)N[C@@H](CCCCN)C(=O)N1CCC[C@H]1C(=O)N[C@H](C(=O)N[C@H](C(=O)N[C@H](C(N)=O)[C@@H](C)CC)[C@@H](C)CC)[C@@H](C)CC)[C@@H](C)CC)[C@@H](C)CC)[C@@H](C)CC)[C@@H](C)CC)[C@@H](C)CC)[C@@H](C)CC)[C@@H](C)CC)[C@@H](C)CC (H-IIICRKPIICRKPIICRKPIICRKPIII-NH2) here?
A: 28.5

Q: And the selectivity ratio [2]?
A: 57

Q: What about the selectivity ratio [3] of the same molecule?
A: 57

Q: And the Activity (Cell membrane [4])?
A: Active

Q: And the MIC [5]?
A: 4 µM (≈ 13.3 µg/mL)

Q: What about the MIC (Enterococcus faecalis) of the same molecule?
A: 8 µM (≈ 26.5 µg/mL)

Q: What about the MIC (Staphylococcus aureus [6]) of the same molecule?
A: 4 µM (≈ 13.3 µg/mL)

Q: What about the MIC (Escherichia coli [7]) of the same molecule?
A: 4 µM

Q: And the MHC (Erythrocyte)?
A: > 128 µM

Q: And the MIC (Escherichia coli [8])?
A: 2 µM

Q: What about the MIC (Escherichia coli [9]) of the same molecule?
A: 4 µM

Q: And the MIC (Escherichia coli [10])?
A: 2 µM

Q: And the MIC (Escherichia coli [11])?
A: 2 µM

Q: And the MIC (Escherichia coli [12])?
A: 4 µM

Q: And the MIC (Staphylococcus aureus [13])?
A: 8 µM

Q: What about the MIC (Staphylococcus aureus [14]) of the same molecule?
A: 8 µM

Q: What about the MIC (Staphylococcus aureus [15]) of the same molecule?
A: 32 µM

Q: And the Stabilty [16]?
A: Stable

Q: And the Activity (Escherichia coli [17])?
A: Active

Q: And the Activity (Staphylococcus aureus [18])?
A: Active

Q: And the Activity (Escherichia coli [19])?
A: Active

Q: And the Activity [20]?
A: Non-Toxic

Q: And the Activity (Escherichia coli [21])?
A: 5.38 log10CFU/g

Q: What about the Activity (Escherichia coli [22]) of the same molecule?
A: Active

Q: And the Activity (Escherichia coli [23])?
A: Active

Q: And the Activity (RAW264.7 [24])?
A: Dose-dependent effect

Q: And the Activity (RAW264.7 [25])?
A: Dose-dependent effect

Q: What about the Stabilty [26] of the same molecule?
A: Stable

Q: And the Stabilty [27]?
A: Stable

Q: And the Stabilty (Trypsin)?
A: Stable

Q: And the Stabilty [28]?
A: Stable

Q: And the Activity (Staphylococcus aureus [29])?
A: Dose-dependent effect

Q: And the Activity (Cell membrane [30])?
A: Active

Q: What about the Activity (Cell membrane [31]) of the same molecule?
A: > 90%

Q: And the Activity (Cell membrane [32])?
A: Active

Q: And the Activity (Cell membrane [33])?
A: Active

Q: And the Activity (Cell membrane [34])?
A: Active

Q: And the Activity (Cell membrane [35])?
A: Active

Q: What about the Activity (Cell membrane [36]) of the same molecule?
A: Active

Q: And the Activity (Cell membrane [37])?
A: Active
